The nature of data set [1]: detection of radiolabelled compound in saliva. It is filed as in vivo.
The conditions of data set [2]: known; cited from earlier work.
Data set [3] relates to rats. Put plainly: in vivo observation, overdose in rats. As to conditions: rats exposed to an overdose.
Data set [4] concerns clinical subjects. Put plainly: clinical observation of pupil response. It is filed as in vivo, human. As to conditions: rather than the expected pupilary dilation.
Data set [5] concerns muscarinic cholinergic receptor. Put plainly: pharmacological studies, muscarinic cholinergic receptor activity.
Data set [6] has as its system people addicted to nicotine. As to conditions: cited from earlier work.

The structures appear in SMILES notation.

On to `Cc1cc2c(s1)Nc1ccccc1N=C2N1CCN(C)CC1` [2-methyl-4-(4-methyl-1-piperazinyl)-10H-thieno[2,3-b][1,5]benzodiazepine], for which the detection in saliva result in data set [1] is “can be detected in the saliva”. In data set [2], the antipsychotic activity result was “can provide antipsychotic activity” and the extrapyramidal symptoms entry was “less likely to induce extrapyramidal symptoms”. Also, in data set [3], the salivation entry was “significant salivation”. The pupilary response result in data set [4] is “pupilary constriction”. Besides, the “muscarinic receptor subtype profile” value in data set [5] (in vivo animal and clinical observations) is listed as “complex muscarinic receptor subtype profile”. Moreover, the “muscarinic cholinergic receptor activity” value in data set [5] (pharmacological studies) was “has muscarinic cholinergic receptor activity”.

Turning to `Clc1cccc(Cl)c1N=C1NCCN1` [clonidine], the effectiveness versus placebo entry in data set [6] (clonidine treatment for six weeks) was “more effective than placebo, but only for women”.

Consider `CNC1(C)C2CCC(C2)C1(C)C` (stereo not shown) [mecamylamine], for which the undesirable side effects result in data set [6] (receptor antagonist therapy) was “other undesirable side effects”. In data set [6] (receptor antagonist therapy, short term effect), the “effect on tobacco consumption” value was “increasing tobacco consumption”.

The values above are taken from US5696115A, “Method for treating nicotine withdrawal” (Eli Lilly and Company, priority 1995, dated 1997).
